From PMC8389907 (Journal of Medicinal Chemistry, 2021)
Like-named read-outs stand apart in the source and are kept apart here.

How the values were obtained:
[1] = test system: WH1 human fibroblasts; test: MTT cell viability assay, WH1 fibroblasts; assay type: cell-based; conditions: Fibroblast, 72 h treatment
Experimental: (§1) The cell lines DU145 (HTB-81, human prostate carcinoma), PC3 (CRL-1435, human prostate adenocarcinoma), MCF7 (HTB-22, human breast adenocarcinoma), MDA-MB231 (HTB-26, human breast adenocarcinoma), and HCT116 (CCL-247, human colorectal carcinoma) were obtained from ATCC (American Type Culture Collection, Manassas, VA, USA); WH1 human fibroblasts were kindly provided by Dr. Guven.[51] All the cells were maintained under standard culture conditions (37 °C; 5% CO2) in the RMPI1640 medium (PC3, MCF7, and MDA-MB231 cells), while DU145 and HCT116 cells were in the DMEM and Iscove’s medium (WH1 cells) supplemented with 10% fetal calf serum, 1% glutamine, and 1% antibiotics mixture; for HCT116 and DU145 cells, 1% sodium pyruvate and 1% non-essential amino acids were also added to the culture medium.
(§2) The 3-(4,5-dimethylthiazol-2-yl)-2,5-diphenyltetrazolium bromide (MTT) assay was performed on all the cell lines tested as previously described[52] with minor modifications. Briefly, according to the growth profiles previously defined for each cell line, adequate numbers of cells were plated in each well of a 96-well plate in 0.1 mL of complete culture medium. Cells were allowed to attach for 24 h before the treatment at 37 °C for 72 h with the compounds at concentrations ranging between 0.1 and 75 μM, bringing the final volume to 0.2 mL/well. Each experiment included eight replications per concentration tested; control samples were run with 0.2% DMSO. At the end of the incubation period, MTT (0.05 mL of a 2 mg/mL stock solution in PBS) was added to each well for 3 h at 37 °C. Cell supernatants were then carefully removed, the blue formazan crystals formed through MTT reduction by metabolically active cells were dissolved in 0.120 mL of DMSO, and the corresponding optical densities were measured at 570 nm using a Universal Microplate Reader EL800 (Bio-Tek, Winooski, VT).
(§3) IC50 values were estimated from the resulting concentration–response curves by nonlinear regression analysis using GraphPad Prism software, v. 5.0 (GraphPad, San Diego, CA, USA). Differences between IC50 values were evaluated statistically by analysis of variance with a Bonferroni post-test for multiple comparisons.

[2] = test system: MDA-MB231 cells; test: MTT cell viability assay, MDA-MB231; assay type: cell-based; conditions: Homo sapiens, MDA-MB-231
Experimental: as §1, §2, §3

[3] = test system: PC3 cells; test: MTT cell viability assay, PC3; assay type: cell-based; conditions: Homo sapiens, PC-3
Experimental: as §1, §2, §3

[4] = test system: HCT116 cells; test: MTT cell viability assay, HCT116; assay type: cell-based; conditions: Homo sapiens, HCT-116; supplement csv, unit inferred; read-out: HCT116 IC50
Experimental: as §1, §2, §3

[5] = test system: HBL100 cells; test: MTT cell viability assay, non-tumorigenic HBL100; assay type: cell-based; conditions: Homo sapiens, HBL-100, 72 h treatment
Experimental: as §2, §3

[6] = test system: MCF7 cells; test: MTT cell viability assay, MCF7; assay type: cell-based; conditions: Homo sapiens
Experimental: as §1, §2, §3

[7] = test system: DU145 cells; test: MTT cell viability assay, DU145; assay type: cell-based; conditions: Homo sapiens, DU-145
Experimental: as §1, §2, §3

[8] = test system: MCF7/ADR cells; test: MTT cell viability assay, DOX-resistant MCF7/ADR; assay type: cell-based, human; conditions: for IC50: Homo sapiens, NCI/ADR-RES, 72 h treatment, MTT; for R.I. (resistance index): MCF7/ADR vs MCF7
Experimental: as §2, §3

[9] = supplement csv, unit inferred, read-out: MDA-MB231 IC50
[10] = supplement csv, unit inferred, read-out: PC3 IC50
[11] = 72 h treatment, MTT, read-out: IC50 MCF7
[12] = 72 h treatment, MTT, read-out: IC50 DU145
[13] = supplement csv, unit inferred, read-out: DU145 IC50

| Compound | IC50 [2, 9] | IC50 [3, 10] | IC50 [4] | IC50 [6, 11] | IC50 [7, 12] | IC50 [8] | melting point | IC50 [7, 13] | IC50 ([2]; 72 h treatment, MTT, read-out: IC50 MDA-MB231) | IC50 ([3]; 72 h treatment, MTT, read-out: IC50 PC3) | IC50 ([6]; supplement csv, unit inferred, read-out: MCF7 IC50) | IC50 [1] | IC50 [5] | R.I. (resistance index) [8] |
| --- | --- | --- | --- | --- | --- | --- | --- | --- | --- | --- | --- | --- | --- | --- |
| CCn1cc(C(=O)O)c(=O)c2cc(F)c(N3CCN(c4ccc([N+](=O)[O-])c(C(F)(F)F)c4)CC3)cc21 [Compound 1b, 1-Ethyl-6-fluoro-7-(4-(4-nitro-3-(trifluoromethyl)phenyl)piperazin-1-yl)-4-oxo-1,4-dihydroquinoline-3-carboxylic Acid] | 6.93 ± 0.85 µM | 3.07 ± 0.64 µM | 10.4 ± 1.5 µM |  |  | 5.63 µM | 310 to 312 °C | 2.85 ± 0.01 µM |  |  | 5.24 ± 0.7 µM | 5.35 ± 1.14 µM | 9.26 ± 1.79 µM | 1.1 |
| O=C(O)c1cn(C2CC2)c2cc(N3CCN(c4ccc([N+](=O)[O-])c(C(F)(F)F)c4)CC3)c(F)cc2c1=O [Compound 1a, 1-Cyclopropyl-6-fluoro-7-(4-(4-nitro-3-(trifluoromethyl)phenyl)piperazin-1-yl)-4-oxo-1,4-dihydroquinoline-3-carboxylic Acid] | 8.06 ± 1.05 µM | 6.45 ± 0.19 µM | 9.67 ± 0.36 µM | 8.8 ± 1.59 µM |  | 8.72 ± 1.25 µM | 296 to 298 °C | 7.78 ± 1.52 µM |  |  |  | 9.17 ± 0.6 µM | 7.79 ± 0.66 µM | 1.0 |
| COC(=O)c1cn(C2CC2)c2cc(N3CCN(c4ccc([N+](=O)[O-])c(C(F)(F)F)c4)CC3)c(F)cc2c1=O [Compound 3a, Methyl 1-Cyclopropyl-6-fluoro-7-(4-(4-nitro-3-(trifluoromethyl)phenyl)piperazin-1-yl)-4-oxo-1,4-dihydroquinoline-3-carboxylate] | 10.7 ± 1.9 µM | 15.9 ± 0.5 µM | 6.93 ± 1.53 µM | 15.5 ± 1.2 µM |  | 19.6 ± 3.2 µM | 265 to 267 °C | 5.67 ± 0.06 µM |  |  |  | 8.38 ± 1.2 µM | 10.6 ± 2.4 µM | 1.3 |
| COc1cccc2c1C(=O)c1c(O)c3c(c(O)c1C2=O)C[C@@](O)(C(=O)CO)C[C@@H]3O[C@H]1C[C@H](N)[C@H](O)[C@H](C)O1 [DOX, doxorubicin, reference compound] |  |  |  |  |  | 66.9 ± 2.56 µM |  |  |  |  |  |  |  |  |
| CCn1cc(C(=O)OC)c(=O)c2cc(F)c(N3CCN(c4ccc([N+](=O)[O-])c(C(F)(F)F)c4)CC3)cc21 [Compound 3b, Methyl 1-Ethyl-6-fluoro-7-(4-(4-nitro-3-(trifluoromethyl)phenyl)piperazin-1-yl)-4-oxo-1,4-dihydroquinoline-3-carboxylate] | 10.2 ± 3.1 µM | 15.3 ± 1.2 µM | 9.73 ± 2.25 µM | 11.7 ± 1.4 µM |  | 15 ± 2.1 µM | 236 to 238 °C | 6.06 ± 0.51 µM |  |  |  | 9 ± 1.91 µM | 12 ± 1.7 µM | 1.3 |

More lines, main results first:

| IC50 [2, 9] | IC50 [3, 10] | IC50 [4] | IC50 [6, 11] | IC50 [7, 12] | IC50 [8] | melting point | IC50 [7, 13] | IC50 ([2]; 72 h treatment, MTT, read-out: IC50 MDA-MB231) | IC50 ([3]; 72 h treatment, MTT, read-out: IC50 PC3) | IC50 ([6]; supplement csv, unit inferred, read-out: MCF7 IC50) | Compound | IC50 [1] | IC50 [5] | R.I. (resistance index) [8] |
| --- | --- | --- | --- | --- | --- | --- | --- | --- | --- | --- | --- | --- | --- | --- |
| 3.64 ± 0.63 µM | 4.83 ± 1.15 µM | 5.36 ± 0.65 µM | 5.83 ± 0.82 µM | 1.56 µM | 20 ± 0.3 µM |  |  |  |  |  | CCn1cc(C(=O)O)c(=O)c2cc(F)c(N3CCN(CCCNc4ccc([N+](=O)[O-])c(C(F)(F)F)c4)CC3)cc21 [Compound 7d, 1-Ethyl-6-fluoro-7-(4-(3-((4-nitro-3-(trifluoromethyl)phenyl)amino)propyl)piperazin-1-yl)-4-oxo-1,4-dihydroquinoline-3-carboxylic Acid] | 8.94 ± 0.91 µM | 10.4 ± 0.9 µM | 3.4 |
| 16.1 ± 2.1 µM | 6.72 ± 0.35 µM | 15.7 ± 2 µM | 16.8 ± 2.4 µM |  | 15.1 ± 2.3 µM | 231 to 233 °C | 4.8 ± 0.96 µM |  |  |  | COC(=O)c1cn(C2CC2)c2cc(N3CCN(CCNc4ccc([N+](=O)[O-])c(C(F)(F)F)c4)CC3)c(F)cc2c1=O [Compound 6a, Methyl 1-Cyclopropyl-6-fluoro-7-(4-(2-((4-nitro-3-(trifluoromethyl)phenyl)amino)ethyl)piperazin-1-yl)-4-oxo-1,4-dihydroquinoline-3-carboxylate] | 10.5 ± 2.5 µM | 9.76 ± 0.9 µM | 0.9 |
| 2.24 ± 0.18 µM | 2.48 ± 0.42 µM | 5.29 ± 0.72 µM | 3.12 ± 0.62 µM | < 3 µM | 14.7 ± 4.2 µM |  | 2.56 ± 0.21 µM | < 2.5 µM | < 3 µM |  | O=C(O)c1cn(C2CC2)c2cc(N3CCN(CCNc4ccc([N+](=O)[O-])c(C(F)(F)F)c4)CC3)c(F)cc2c1=O [Compound 7a, 1-Cyclopropyl-6-fluoro-7-(4-(2-((4-nitro-3-(trifluoromethyl)phenyl)amino)ethyl)piperazin-1-yl)-4-oxo-1,4-dihydroquinoline-3-carboxylic Acid] | 5.7 ± 0.92 µM | 9.14 ± 0.44 µM | 4.7 |
| 8.89 ± 1.65 µM | 4.1 ± 0.61 µM | 11.7 ± 2.1 µM | 10.5 ± 1.2 µM |  | 28 ± 1.1 µM | 216 to 218 °C | 5.49 ± 0.97 µM |  |  |  | CCn1cc(C(=O)OC)c(=O)c2cc(F)c(N3CCN(CCCNc4ccc([N+](=O)[O-])c(C(F)(F)F)c4)CC3)cc21 [Compound 6d, Methyl 1-Ethyl-6-fluoro-7-(4-(3-((4-nitro-3-(trifluoromethyl)phenyl)amino)propyl)piperazin-1-yl)-4-oxo-1,4-dihydroquinoline-3-carboxylate] | 9.67 ± 1.65 µM | 3.68 ± 0.2 µM | 2.7 |
| 11.9 ± 1 µM | 9.26 ± 1.29 µM | 12.4 ± 2.9 µM | 15.04 ± 0.1 µM |  | 17.2 ± 1 µM | 245 to 247 °C | 4.77 ± 0.99 µM |  |  |  | CCn1cc(C(=O)OC)c(=O)c2cc(F)c(N3CCN(CCNc4ccc([N+](=O)[O-])c(C(F)(F)F)c4)CC3)cc21 [Compound 6c, Methyl 1-Ethyl-6-fluoro-7-(4-(2-((4-nitro-3-(trifluoromethyl)phenyl)amino)ethyl)piperazin-1-yl)-4-oxo-1,4-dihydroquinoline-3-carboxylate] | 10.6 ± 1.9 µM | 10.8 ± 0.6 µM | 1.1 |
| 3.76 ± 0.94 µM | 3.17 ± 0.47 µM | 5.21 ± 0.73 µM | 12.1 ± 1.1 µM |  | 18.76 ± 0.1 µM | 202 to 204 °C | 14 ± 1.4 µM |  |  |  | COC(=O)c1cn(C2CC2)c2cc(N3CCN(CCCNc4ccc([N+](=O)[O-])c(C(F)(F)F)c4)CC3)c(F)cc2c1=O [Compound 6b, Methyl 1-Cyclopropyl-6-fluoro-7-(4-(3-((4-nitro-3-(trifluoromethyl)phenyl)amino)propyl)piperazin-1-yl)-4-oxo-1,4-dihydroquinoline-3-carboxylate] | 13.2 ± 3.4 µM | 12.2 ± 2 µM | 1.5 |
